# Tested on: Caco-2 cell monolayers
# Test: Permeability across Caco-2 cell monolayers
# Format: in vitro ADME
# Details: Caco-2 monolayers after exposure to test article, 37° C.
# Description: To test the permeability of dietary fatty acids across Caco-2 cell monolayers, Caco-2 cell monolayers are grown to confluence on collagen-coated, microporous, polycarbonate membranes in 12-well Costar Transwell® plates.
# The test article is the aqueous dietary fatty acids formulation, and the dosing concentration is 2 μM in the assay buffer (HBSSg) as in the previous example. Cell monolayers are dosed on the apical side (A-to-B) or basolateral side (B-to-A) and incubated at 37° C. with 5% CO2 in a humidified incubator. Samples are taken from the donor chamber at 120 minutes, and samples from the receiver chamber are collected at 60 and 120 minutes. Each determination is performed in duplicate. Lucifer yellow permeability is also measured for each monolayer after being subjected to the test article to ensure no damage is inflicted to the cell monolayers during the permeability experiment. Permeability of samples of atenolol, propranolol and digoxin are also measured to compare with the permeability of the dietary fatty acids sample. All samples are assayed for dietary fatty acids, or corresponding comparative compounds, by LC/MS/MS using electrospray ionization. The apparent permeability (Papp) and percent recovery are calculated as is known in the art. […]
substance,measurement,value
Lucifer yellow,Papp (post-experiment monolayer integrity control),< 0.8 ×10⁻⁶ cm/s
